ChEMBL document CHEMBL1143416, “In vitro susceptibility to posaconazole of 1,903 yeast isolates recovered in France from 2003 to 2006 and tested by the method of the European committee on antimicrobial susceptibility testing” (2007)
≈ marks a conversion by molar mass, not a printed value.

Tests used:
Type in all cases: functional
[1] = test system: Pichia kudriavzevii; experiment: Antimicrobial activity against Candida krusei isolate from superficial infection
[2] = test system: Nakaseomyces glabratus; experiment: Antimicrobial activity against Candida glabrata isolate from superficial infection
[3] = test system: Candida tropicalis; experiment: Antimicrobial activity against Candida tropicalis isolate from superficial infection
[4] = test system: Yarrowia lipolytica; experiment: Antimicrobial activity against Candida lipolytica isolate
[5] = test system: Candida parapsilosis; experiment: Antimicrobial activity against Candida parapsilosis blood isolate; details: Lodderomyces parapsilosis
[6] = test system: Candida albicans; experiment: Antimicrobial activity against Candida albicans isolate from superficial infection
[7] = test system: Pichia kudriavzevii; experiment: Antimicrobial activity against Candida krusei blood isolate
[8] = test system: Saccharomyces cerevisiae; experiment: Antimicrobial activity against Saccharomyces cerevisiae isolate
[9] = test system: Nakaseomyces glabratus; experiment: Antimicrobial activity against Candida glabrata isolate
[10] = test system: Candida dubliniensis; experiment: Antimicrobial activity against Candida dubliniensis isolate
[11] = test system: Trichosporon asahii; experiment: Antimicrobial activity against Trichosporon asahii isolate
[12] = test system: [Candida] haemuloni; experiment: Antimicrobial activity against Candida haemulonii isolate; details: Candidozyma haemuli
[13] = test system: Nakaseomyces glabratus; experiment: Antimicrobial activity against Candida glabrata blood isolate
[14] = test system: Kodamaea ohmeri; experiment: Antimicrobial activity against Pichia ohmeri isolate
[15] = test system: Candida dubliniensis; experiment: Antimicrobial activity against Candida dubliniensis isolate from superficial infection
[16] = test system: Candida tropicalis; experiment: Antimicrobial activity against Candida tropicalis blood isolate
[17] = test system: Magnusiomyces capitatus; experiment: Antimicrobial activity against Geotrichum capitatum isolate
[18] = test system: Candida africana; experiment: Antimicrobial activity against Candida africana isolate
[19] = test system: Diutina rugosa; experiment: Antimicrobial activity against Candida rugosa isolate
[20] = test system: Trichosporon inkin; experiment: Antimicrobial activity against Trichosporon inkin isolate
[21] = test system: Meyerozyma guilliermondii; experiment: Antimicrobial activity against Candida guilliermondii isolate from superficial infection
[22] = test system: Candida albicans; experiment: Antimicrobial activity against Candida albicans blood isolate
[23] = test system: Candida dubliniensis; experiment: Antimicrobial activity against Candida dubliniensis blood isolate
[24] = test system: Debaryomyces hansenii; experiment: Antimicrobial activity against Candida famata isolate
[25] = test system: Meyerozyma guilliermondii; experiment: Antimicrobial activity against Candida guilliermondii blood isolate
[26] = test system: Pichia kudriavzevii; experiment: Antimicrobial activity against Candida krusei isolate
[27] = test system: Candida albicans; experiment: Antimicrobial activity against Candida albicans isolate
[28] = test system: Wickerhamomyces anomalus; experiment: Antimicrobial activity against Candida pelliculosa isolate; details: Hansenula anomala
[29] = test system: [Candida] palmioleophila; experiment: Antimicrobial activity against Candida palmioleophila isolate; details: Suzukiozyma palmioleophila
[30] = test system: Kluyveromyces marxianus; experiment: Antimicrobial activity against Candida kefyr isolate
[31] = test system: Meyerozyma caribbica; experiment: Antimicrobial activity against Candida fermentati isolate
[32] = test system: Clavispora lusitaniae; experiment: Antimicrobial activity against Candida lusitaniae isolate from superficial infection
[33] = test system: Meyerozyma guilliermondii; experiment: Antimicrobial activity against Candida guilliermondii isolate
[34] = test system: Trichosporon; experiment: Antimicrobial activity against Trichosporon isolate
[35] = test system: Candida tropicalis; experiment: Antimicrobial activity against Candida tropicalis isolate
[36] = test system: Candida parapsilosis; experiment: Antimicrobial activity against Candida parapsilosis isolate; details: Lodderomyces parapsilosis
[37] = test system: Apiotrichum loubieri; experiment: Antimicrobial activity against Trichosporon loubieri isolate
[38] = test system: Cutaneotrichosporon mucoides; experiment: Antimicrobial activity against Trichosporon mucoides isolate
[39] = test system: Kluyveromyces marxianus; experiment: Antimicrobial activity against Candida kefyr blood isolate
[40] = test system: [Candida] inconspicua; experiment: Antimicrobial activity against Candida inconspicua isolate; details: Pichia inconspicua
[41] = test system: Cryptococcus neoformans; experiment: Antimicrobial activity against Cryptococcus neoformans isolate from superficial infection
[42] = test system: Rhodotorula mucilaginosa; experiment: Antimicrobial activity against Rhodotorula mucilaginosa isolate
[43] = test system: Cryptococcus neoformans; experiment: Antimicrobial activity against Cryptococcus neoformans isolate
[44] = test system: Clavispora lusitaniae; experiment: Antimicrobial activity against Candida lusitaniae blood isolate
[45] = test system: Clavispora lusitaniae; experiment: Antimicrobial activity against Candida lusitaniae isolate
[46] = test system: Cryptococcus neoformans; experiment: Antimicrobial activity against Cryptococcus neoformans blood isolate
[47] = test system: Candida parapsilosis; experiment: Antimicrobial activity against Candida parapsilosis isolate from superficial infection; details: Lodderomyces parapsilosis
[48] = test system: Cyberlindnera jadinii; experiment: Antimicrobial activity against Candida utilis isolate; details: Williopsis jadinii

CC[C@@H]([C@H](C)O)n1ncn(-c2ccc(N3CCN(c4ccc(OC[C@@H]5CO[C@@](Cn6cncn6)(c6ccc(F)cc6F)C5)cc4)CC3)cc2)c1=O [POSACONAZOLE]
MIC50 [1]: 0.25 µg/mL (≈ 0.357 µM)
MIC90 [1]: 0.5 µg/mL (≈ 0.713 µM)
MIC50 [2]: 1 µg/mL (≈ 1.43 µM)
MIC90 [2]: ≥ 8 µg/mL
MIC50 [3]: 0.125 µg/mL (≈ 0.178 µM)
MIC90 [3]: 4 µg/mL (≈ 5.71 µM)
MIC50 [4]: 0.125 µg/mL (≈ 0.178 µM)
MIC50 [5]: 0.125 µg/mL (≈ 0.178 µM)
MIC90 [5]: 0.25 µg/mL (≈ 0.357 µM)
MIC50 [6]: 0.06 µg/mL (≈ 0.0856 µM)
MIC90 [6]: 0.25 µg/mL (≈ 0.357 µM)
MIC50 [7]: 0.25 µg/mL (≈ 0.357 µM)
MIC90 [7]: 0.5 µg/mL (≈ 0.713 µM)
MIC50 [8]: 0.03 µg/mL (≈ 0.0428 µM)
MIC50 [9]: 1 µg/mL (≈ 1.43 µM)
MIC90 [9]: ≥ 8 µg/mL
MIC50 [10]: 0.06 µg/mL (≈ 0.0856 µM)
MIC90 [10]: 0.125 µg/mL (≈ 0.178 µM)
MIC50 [11]: 0.25 µg/mL (≈ 0.357 µM)
MIC50 [12]: ≥ 8 µg/mL
MIC90 [12]: ≥ 8 µg/mL
MIC50 [13]: 1 µg/mL (≈ 1.43 µM)
MIC90 [13]: ≥ 8 µg/mL
MIC50 [14]: 0.06 µg/mL (≈ 0.0856 µM)
MIC [15]: ≤ 0.015 µg/mL
MIC50 [16]: 0.125 µg/mL (≈ 0.178 µM)
MIC90 [16]: 0.5 µg/mL (≈ 0.713 µM)
MIC50 [17]: 0.5 µg/mL (≈ 0.713 µM)
MIC50 [18]: ≤ 0.015 µg/mL
MIC50 [19]: 0.06 µg/mL (≈ 0.0856 µM)
MIC50 [20]: 0.06 µg/mL (≈ 0.0856 µM)
MIC50 [21]: 0.5 µg/mL (≈ 0.713 µM)
MIC90 [21]: 0.5 µg/mL (≈ 0.713 µM)
MIC50 [22]: 0.03 µg/mL (≈ 0.0428 µM)
MIC90 [22]: 0.125 µg/mL (≈ 0.178 µM)
MIC50 [23]: 0.06 µg/mL (≈ 0.0856 µM)
MIC90 [23]: 0.125 µg/mL (≈ 0.178 µM)
MIC50 [24]: 0.125 µg/mL (≈ 0.178 µM)
MIC50 [25]: 0.25 µg/mL (≈ 0.357 µM)
MIC90 [25]: 1 µg/mL (≈ 1.43 µM)
MIC50 [26]: 0.25 µg/mL (≈ 0.357 µM)
MIC90 [26]: 0.5 µg/mL (≈ 0.713 µM)
MIC50 [27]: 0.06 µg/mL (≈ 0.0856 µM)
MIC90 [27]: 0.125 µg/mL (≈ 0.178 µM)
MIC50 [28]: 0.06 µg/mL (≈ 0.0856 µM)
MIC50 [29]: 0.125 µg/mL (≈ 0.178 µM)
MIC50 [30]: 0.125 µg/mL (≈ 0.178 µM)
MIC90 [30]: 0.25 µg/mL (≈ 0.357 µM)
MIC50 [31]: 0.25 µg/mL (≈ 0.357 µM)
MIC90 [31]: 1 µg/mL (≈ 1.43 µM)
MIC [32]: 0.03 µg/mL (≈ 0.0428 µM)
MIC50 [33]: 0.25 µg/mL (≈ 0.357 µM)
MIC90 [33]: 0.5 µg/mL (≈ 0.713 µM)
MIC50 [34]: 0.06 µg/mL (≈ 0.0856 µM)
MIC50 [35]: 0.125 µg/mL (≈ 0.178 µM)
MIC90 [35]: 0.25 µg/mL (≈ 0.357 µM)
MIC50 [36]: 0.125 µg/mL (≈ 0.178 µM)
MIC90 [36]: 0.25 µg/mL (≈ 0.357 µM)
MIC50 [37]: 0.06 µg/mL (≈ 0.0856 µM)
MIC50 [38]: 0.06 µg/mL (≈ 0.0856 µM)
MIC50 [39]: 0.125 µg/mL (≈ 0.178 µM)
MIC90 [39]: 0.5 µg/mL (≈ 0.713 µM)
MIC50 [40]: 0.125 µg/mL (≈ 0.178 µM)
MIC50 [41]: 0.125 µg/mL (≈ 0.178 µM)
MIC90 [41]: 0.5 µg/mL (≈ 0.713 µM)
MIC50 [42]: 1 µg/mL (≈ 1.43 µM)
MIC50 [43]: 0.125 µg/mL (≈ 0.178 µM)
MIC90 [43]: 0.5 µg/mL (≈ 0.713 µM)
MIC50 [44]: 0.06 µg/mL (≈ 0.0856 µM)
MIC90 [44]: 0.25 µg/mL (≈ 0.357 µM)
MIC50 [45]: 0.06 µg/mL (≈ 0.0856 µM)
MIC90 [45]: 0.25 µg/mL (≈ 0.357 µM)
MIC50 [46]: 0.125 µg/mL (≈ 0.178 µM)
MIC90 [46]: 0.5 µg/mL (≈ 0.713 µM)
MIC50 [47]: 0.125 µg/mL (≈ 0.178 µM)
MIC90 [47]: 0.25 µg/mL (≈ 0.357 µM)
MIC50 [48]: 0.125 µg/mL (≈ 0.178 µM)

C[C@@H](c1ncncc1F)[C@](O)(Cn1cncn1)c1ccc(F)cc1F [VORICONAZOLE]
MIC50 [4]: ≤ 0.015 µg/mL
MIC50 [8]: ≤ 0.015 µg/mL
MIC50 [11]: 0.03 µg/mL (≈ 0.0859 µM)
MIC50 [12]: ≥ 8 µg/mL
MIC90 [12]: ≥ 8 µg/mL
MIC50 [14]: 0.03 µg/mL (≈ 0.0859 µM)
MIC50 [17]: ≤ 0.015 µg/mL
MIC50 [18]: ≤ 0.015 µg/mL
MIC50 [19]: ≤ 0.015 µg/mL
MIC50 [20]: ≤ 0.015 µg/mL
MIC50 [24]: ≤ 0.015 µg/mL
MIC50 [28]: 0.03 µg/mL (≈ 0.0859 µM)
MIC50 [29]: 0.06 µg/mL (≈ 0.172 µM)
MIC50 [31]: 0.125 µg/mL (≈ 0.358 µM)
MIC90 [31]: 1 µg/mL (≈ 2.86 µM)
MIC50 [34]: 0.03 µg/mL (≈ 0.0859 µM)
MIC50 [37]: 0.03 µg/mL (≈ 0.0859 µM)
MIC50 [38]: 0.03 µg/mL (≈ 0.0859 µM)
MIC50 [40]: 0.06 µg/mL (≈ 0.172 µM)
MIC50 [42]: 2 µg/mL (≈ 5.73 µM)
MIC50 [48]: 0.03 µg/mL (≈ 0.0859 µM)
